One test deals with T1, MOR (Mus musculus, UniProt P42866).
T1 construct: expressed in transfected cells; host or cells: CHO (MOR-CHO), membrane preparation
Kind of test: MOR [35S]GTPγS functional assay. Type of test: biochemical. Particulars: for Emax: read-out: MOR [35S]GTPγS Binding %Emax of DAMGO, relative to 3 μM DAMGO, mean ± SEM. On the procedure:
The [^35S]GTPγS functional assay was used to assess the efficacy of compounds at the MOR, KOR, and DOR. In this assay, 10 μg of MOR-CHO/KOR-CHO/DOR-CHO membrane protein was incubated in 500 μL of TME with 100 mM NaCl, 20 μM GDP, 0.1 nM [^35S]GTPγS, and varying concentrations of the compound for 1.5 h in a 30 °C water bath. Protein concentration was adjusted using the Bradford protein assay. […] After incubation, bound radioactivity was separated by filtration through GF/B glass fiber filters and measured by liquid scintillation counting. All assays were performed in duplicate and repeated at least three times. Net stimulated [35S]GTPγS binding was calculated as agonist-stimulated minus basal binding.

A further test concerns the target T2, μ opioid receptor (MOR) (Mus musculus, UniProt P42866).
T2 construct: expressed in transfected cells; host or cells: CHO (mMOR-CHO), membrane preparation
Kind of test: Competitive radioligand binding assay, MOR. On the procedure:
(§1) The competition binding assay was performed using monoclonal mouse opioid receptors expressed in CHO cell lines (monoclonal human δ opioid receptor was used for the DOR assay).
(§2) The bound radioligand was separated using a Brandel harvester. Specific binding to the MOR, KOR, and DOR was calculated by subtracting the binding observed in the presence of 5 μM naltrexone, U50488, and SNC80, respectively, from the binding in their absence. Relative affinity values (IC50) were determined by fitting displacement binding inhibition data to a nonlinear regression model using GraphPad Prism 8.0 (GraphPad Software, San Diego, CA). The % inhibition was calculated using the formula: % inhibition = 100% - [(binding with the tested compound - nonspecific binding)/specific binding] × 100%. The IC50 values were converted to Ki values using the Cheng-Prusoff equation: Ki = IC50/ [1 + ([L*]/KD)], where [L*] is the concentration of the radioligand and KD is the KD of the radioligand.[68]

The target of another test is T3, δ opioid receptor (DOR) (Homo sapiens, UniProt P41143).
T3 construct: expressed in transfected cells; host or cells: CHO (hDOR-CHO), membrane preparation
As to the kind of experiment: Competitive radioligand binding assay, DOR. Particulars: for Selectivity δ/μ: ratio of Ki values. On the procedure: as §1, §2

The next test deals with T4, κ opioid receptor (KOR) (Mus musculus, UniProt P33534).
T4 construct: expressed in transfected cells; host or cells: CHO (mKOR-CHO), membrane preparation
As to the kind of experiment: Competitive radioligand binding assay, KOR. The conditions noted are these: for Selectivity κ/μ: ratio of Ki values. On the procedure: as §1, §2

The subject of another test is Swiss Webster mice. Kind of test: Warm-water tail immersion assay, antagonism of morphine-induced antinociception. The conditions noted are these: for Antagonism of morphine's antinociception, in words: single dose of 10 mg/kg s.c. in the presence of morphine (10 mg/kg), n = 6.

Each structure is given as a SMILES string. Counter-ions that a name gives are not always drawn.

One may read the EC50 as the concentration needed to bring the measured effect to its halfway point. Low values mean higher potency in that assay, high ones lower potency in that assay. What is called Emax is the size of the effect at its maximum, as opposed to the concentration needed. As usually defined, the Ki is the dissociation constant of the complex between target and ligand, obtained from inhibition or displacement.

In the case of `O=C(Cc1ccns1)N[C@H]1CC[C@@]2(O)[C@H]3Cc4ccc(O)c5c4[C@@]2(CCN3CC2CC2)[C@H]1O5` [Compound 2, 17-Cyclopropylmethyl-3,14β-dihydroxy-4,5α-epoxy-6α-(5′-isothiazolylacetamido)-morphinan hydrochloride], on MOR, the EC50 is 4.62 ± 0.44 nM and the Emax amounted to 18.2 ± 1.06%. In addition, the affinity at μ opioid receptor (MOR), expressed as Ki, was 0.55 ± 0.06 nM. At δ opioid receptor (DOR), the inhibition constant (Ki) is 13.9 ± 1.62 nM and the “Selectivity δ/μ” value was 25. On κ opioid receptor (KOR), the affinity corresponds to a Ki of 1.49 ± 0.13 nM and the “Selectivity κ/μ” value is reported as 3.
For the molecule `O=C(N[C@H]1CC[C@@]2(O)[C@H]3Cc4ccc(O)c5c4[C@@]2(CCN3CC2CC2)[C@H]1O5)c1cncs1` [Compound 3, 17-Cyclopropylmethyl-3,14β-dihydroxy-4,5α-epoxy-6α-(5′-thiazolylcarboxamido)-morphinan hydrochloride], at MOR, the EC50 worked out at 2.77 ± 0.51 nM and the Emax is 15.9 ± 1.84%. The molecule further returned an inhibition constant Ki on μ opioid receptor (MOR) of 0.35 ± 0.02 nM. On δ opioid receptor (DOR), the Ki was 16.8 ± 3.88 nM and the “Selectivity δ/μ” value turned out to be 48. At κ opioid receptor (KOR), the inhibition constant Ki turned out to be 0.97 ± 0.11 nM and the “Selectivity κ/μ” value is 3.
For the molecule `O=C(Cc1cncs1)N[C@H]1CC[C@@]2(O)[C@H]3Cc4ccc(O)c5c4[C@@]2(CCN3CC2CC2)[C@H]1O5` [Compound 4, 17-Cyclopropylmethyl-3,14β-dihydroxy-4,5α-epoxy-6α-(5′-thiazolylacetamido)-morphinan hydrochloride], on MOR, the concentration for a half-maximal effect (EC50) amounted to 5.87 ± 1.26 nM and the maximal response (Emax) was found to be 17 ± 0.89%. Besides, the Ki on μ opioid receptor (MOR) came to 0.57 ± 0.02 nM. For the same molecule, on δ opioid receptor (DOR), the Ki came to 8.5 ± 0.56 nM and the “Selectivity δ/μ” value turned out to be 15. Moreover, on κ opioid receptor (KOR), the Ki worked out at 2.08 ± 0.39 nM and the “Selectivity κ/μ” value is 4.
On to `O=C(CCc1cncs1)N[C@H]1CC[C@@]2(O)[C@H]3Cc4ccc(O)c5c4[C@@]2(CCN3CC2CC2)[C@H]1O5` [Compound 5, 17-Cyclopropylmethyl-3,14β-dihydroxy-4,5α-epoxy-6α-[(3′-(thiazolyl-5′′-yl)propan-amido]morphinan hydrochloride], for which, at MOR, the midpoint of the response, the EC50, lay at 2.76 ± 0.58 nM and the Emax turned out to be 10.7 ± 1.02%. The molecule also registered an inhibitory constant (Ki) at μ opioid receptor (MOR) of 0.71 ± 0.08 nM. For the same molecule, on δ opioid receptor (DOR), affinity was put at a Ki of 11.6 ± 1.24 nM and the “Selectivity δ/μ” value is given as 16. Also, at κ opioid receptor (KOR), the Ki worked out at 2.04 ± 0.38 nM and the “Selectivity κ/μ” value was determined as 3.
As for `O=C(Cc1nccs1)N[C@H]1CC[C@@]2(O)[C@H]3Cc4ccc(O)c5c4[C@@]2(CCN3CC2CC2)[C@H]1O5` [Compound 7, 17-Cyclopropylmethyl-3,14β-dihydroxy-4,5α-epoxy-6α-(2′-thiazolylacetamido)-morphinan hydrochloride], at MOR, the response was half-maximal at 3.87 ± 1.29 nM (EC50) and the maximal response (Emax) was determined as 10.2 ± 0.61%. At μ opioid receptor (MOR), this molecule came in with an inhibition constant Ki of 0.65 ± 0.05 nM. Besides, in the test with Swiss Webster mice, the “Antagonism of morphine's antinociception, in words” value (“Antagonism” for short) is given as “significantly antagonized”. Besides, on δ opioid receptor (DOR), the Ki turned out to be 1.3 ± 0.08 nM and the “Selectivity δ/μ” value is given as 2. Moreover, on κ opioid receptor (KOR), affinity was put at a Ki of 2.26 ± 0.5 nM and the “Selectivity κ/μ” value is on record as 3.
In the case of `O=C(CCc1nccs1)N[C@H]1CC[C@@]2(O)[C@H]3Cc4ccc(O)c5c4[C@@]2(CCN3CC2CC2)[C@H]1O5` [Compound 8, 17-Cyclopropylmethyl-3,14β-dihydroxy-4,5α-epoxy-6α-[(3′-(thiazolyl-2′′-yl)propan-amido]morphinan hydrochloride], on MOR, a half-maximal response (EC50) required 3.4 ± 0.6 nM and the Emax came out at 13.4 ± 0.41%. The molecule also returned a Ki on μ opioid receptor (MOR) of 0.45 ± 0.06 nM. Also, in the test on Swiss Webster mice, the “Antagonism” value is listed as “significantly antagonized”. Moreover, at δ opioid receptor (DOR), affinity was put at a Ki of 1.18 ± 0.06 nM and the “Selectivity δ/μ” value is 3. For the same molecule, at κ opioid receptor (KOR), the Ki stood at 2 ± 0.42 nM and the “Selectivity κ/μ” value is listed as 4.
`O=C(Cc1ccns1)N[C@@H]1CC[C@@]2(O)[C@H]3Cc4ccc(O)c5c4[C@@]2(CCN3CC2CC2)[C@H]1O5` [Compound 10, 17-Cyclopropylmethyl-3,14β-dihydroxy-4,5α-epoxy-6β-(5′-isothiazolylacetamido)-morphinan hydrochloride]: at MOR, the 50% effective concentration (EC50) came out at 1.16 ± 0.15 nM and the maximal effect (Emax) came out at 9.32 ± 0.67%. The molecule further returned an inhibitory constant (Ki) on μ opioid receptor (MOR) of 0.59 ± 0.09 nM. Further, in the test on Swiss Webster mice (mice, s.c., given 5 min before morphine), the “AD50 (95% CL) for counteracting morphine-induced antinociception” value is listed as 13.12 (2.34–73.39) mg/kg. For the same molecule, in the test with Swiss Webster mice, the “Antagonism” value is listed as “significantly antagonized”. Besides, on δ opioid receptor (DOR), the Ki worked out at 34 ± 4.18 nM and the “Selectivity δ/μ” value is reported as 58. Also, at κ opioid receptor (KOR), affinity was put at a Ki of 1.14 ± 0.05 nM and the “Selectivity κ/μ” value was found to be 2.
Take `O=C(N[C@@H]1CC[C@@]2(O)[C@H]3Cc4ccc(O)c5c4[C@@]2(CCN3CC2CC2)[C@H]1O5)c1cncs1` [Compound 11, 17-Cyclopropylmethyl-3,14β-dihydroxy-4,5α-epoxy-6β-(5′-thiazolylcarboxamido)-morphinan hydrochloride]: on MOR, the concentration giving a half-maximal response (EC50) worked out at 1.58 ± 0.44 nM and the Emax came to 13.7 ± 1.32%. In addition, the inhibition constant (Ki) at μ opioid receptor (MOR) worked out at 0.53 ± 0.04 nM. In addition, the “Antagonism” value in the test with Swiss Webster mice is listed as “significantly antagonized”. At δ opioid receptor (DOR), the Ki was 77.9 ± 16.1 nM and the “Selectivity δ/μ” value was determined as 147. Moreover, on κ opioid receptor (KOR), the affinity corresponds to a Ki of 1.41 ± 0.24 nM and the “Selectivity κ/μ” value stood at 3.
As to `O=C(Cc1cncs1)N[C@@H]1CC[C@@]2(O)[C@H]3Cc4ccc(O)c5c4[C@@]2(CCN3CC2CC2)[C@H]1O5` [Compound 12, 17-Cyclopropylmethyl-3,14β-dihydroxy-4,5α-epoxy-6β-(5′-thiazolylacetamido)-morphinan hydrochloride], on MOR, the half-maximal effective concentration (EC50) turned out to be 1.24 ± 0.25 nM and the Emax is 13 ± 0.76%. In addition, the Ki at μ opioid receptor (MOR) worked out at 0.39 ± 0.04 nM. Further, at δ opioid receptor (DOR), the Ki was 17.5 ± 1.91 nM and the “Selectivity δ/μ” value is recorded as 44. Further, at κ opioid receptor (KOR), the affinity corresponds to a Ki of 0.89 ± 0.05 nM and the “Selectivity κ/μ” value came to 2.
`O=C(CCc1cncs1)N[C@@H]1CC[C@@]2(O)[C@H]3Cc4ccc(O)c5c4[C@@]2(CCN3CC2CC2)[C@H]1O5` [Compound 13, 17-Cyclopropylmethyl-3,14β-dihydroxy-4,5α-epoxy-6β-[(3′-(thiazolyl-5′′-yl)propan-amido]morphinan hydrochloride]: at MOR, the 50% effective concentration (EC50) worked out at 1.39 ± 0.36 nM and the Emax was found to be 10.5 ± 0.92%. The affinity at μ opioid receptor (MOR) corresponds to a Ki of 0.49 ± 0.07 nM. In addition, on δ opioid receptor (DOR), the Ki was determined as 31.5 ± 2.78 nM and the “Selectivity δ/μ” value is on record as 65. On κ opioid receptor (KOR), the inhibitory constant (Ki) turned out to be 1.2 ± 0.25 nM and the “Selectivity κ/μ” value came to 2.
Turning to `O=C(Cc1nccs1)N[C@@H]1CC[C@@]2(O)[C@H]3Cc4ccc(O)c5c4[C@@]2(CCN3CC2CC2)[C@H]1O5` [Compound 15, 17-Cyclopropylmethyl-3,14β-dihydroxy-4,5α-epoxy-6β-(2′-thiazolylacetamido)-morphinan hydrochloride], on MOR, the concentration giving a half-maximal response (EC50) was 0.78 ± 0.18 nM and the maximal response (Emax) stood at 11 ± 0.43%. On μ opioid receptor (MOR), this molecule yielded an inhibition constant (Ki) of 0.35 ± 0.04 nM. In addition, on δ opioid receptor (DOR), the inhibitory constant (Ki) amounted to 26.4 ± 2.65 nM and the “Selectivity δ/μ” value is 76. At κ opioid receptor (KOR), the affinity, expressed as Ki, was 1.89 ± 0.77 nM and the “Selectivity κ/μ” value is listed as 5.
Turning to `O=C(CCc1nccs1)N[C@@H]1CC[C@@]2(O)[C@H]3Cc4ccc(O)c5c4[C@@]2(CCN3CC2CC2)[C@H]1O5` [Compound 16, 17-Cyclopropylmethyl-3,14β-dihydroxy-4,5α-epoxy-6β-[(3′-(thiazolyl-2′′-yl)propan-amido]morphinan hydrochloride], on MOR, a half-maximal effect (EC50) was put at 1.75 ± 0.46 nM and the maximum response (Emax) was determined as 12.1 ± 0.67%. Besides, at μ opioid receptor (MOR), the inhibition constant Ki stood at 0.35 ± 0.03 nM. Moreover, at δ opioid receptor (DOR), the affinity, expressed as Ki, was 18.8 ± 3.26 nM and the “Selectivity δ/μ” value stood at 54. Besides, at κ opioid receptor (KOR), the Ki was 0.67 ± 0.08 nM and the “Selectivity κ/μ” value came to 2.

Values taken from article PMC11651181, “Discovery of 6α-Thiazolylcarboxamidonaltrexamine Derivative (NTZ) as a Potent and Central Nervous System Penetrant Opioid Receptor Modulator with Drug-like Properties for Potential Treatment of Opioid Use Disorder” (ACS Pharmacology & Translational Science, 2024).
